Source: ChEMBL document CHEMBL1914313, “Monosubstituted γ-lactam and conformationally constrained 1,3-diaminopropan-2-ol transition-state isostere inhibitors of β-secretase (BACE)” (Bioorg Med Chem Lett, 2011)
pIC50: −log10 of the molar value. Activity calls are given as the source filed them. The calls are words filed in the database; no cut-off is given here.

Assays:
[1] = target: T1, Beta-secretase 1 (Homo sapiens, UniProt P56817); experiment: Inhibition of BACE1 by HPLC method
[2] = target: T1, Beta-secretase 1; experiment: Inhibition of BACE1 in human HEK293 cells expressing swedish mutant APP; type: cell-based
[3] = Selectivity for BACE1 over cathepsin E
[4] = Selectivity for BACE1 over cathepsin D
[5] = Selectivity for BACE1 over pepsin
[6] = test system: Mus musculus; experiment: Antialzheimer activity in transgenic 2576 mouse assessed as reduction in plasma amyloid beta level at 30 mg/kg, sc measured after 5 hrs relative to control; type: functional; design: scale not given: the % may be the effect or the level left; conditions: route subcutaneous
[7] = Drug level in plasma of transgenic 2576 mouse at 30 mg/kg, sc measured after 5 hrs; type: ADME, organism-based; design: dose 30 mg/kg, route subcutaneous
[8] = Fraction unbound in plasma of transgenic 2576 mouse at 30 mg/kg, sc measured after 5 hrs; type: ADME, organism-based; design: dose 30 mg/kg, route subcutaneous
[9] = test system: Mus musculus; experiment: Antialzheimer activity in transgenic 2576 mouse assessed as reduction in brain amyloid beta level at 30 mg/kg, sc measured after 5 hrs relative to control; type: functional, organism-based; design: dose 30 mg/kg
[10] = Drug level in brain of transgenic 2576 mouse at 30 mg/kg, sc measured after 5 hrs; type: ADME, organism-based; design: dose 30 mg/kg, route subcutaneous; conditions: read-out: Drug uptake
[11] = Ratio drug level in brain to plasma of transgenic 2576 mouse at 30 mg/kg, sc measured after 5 hrs; type: ADME, organism-based; design: dose 30 mg/kg, route subcutaneous; conditions: read-out: BPR
[12] = test system: Rattus norvegicus; experiment: Antialzheimer activity in CD-IGS rat assessed as reduction in plasma amyloid beta level at 30 mg/kg, ip measured after 5 hrs relative to control; type: functional; design: scale not given: the % may be the effect or the level left; conditions: route intraperitoneal
[13] = Plasma concentration in CD-IGS rat at 30 mg/kg, ip measured after 5 hrs; type: ADME, organism-based; design: dose 30 mg/kg, route intraperitoneal
[14] = test system: Rattus norvegicus; experiment: Antialzheimer activity in CD-IGS rat assessed as reduction in brain amyloid beta level at 30 mg/kg, ip measured after 5 hrs relative to control; type: functional; design: scale not given: the % may be the effect or the level left; conditions: route intraperitoneal
[15] = Ratio drug level in brain to plasma of CD-IGS rat at 30 mg/kg, ip measured after 5 hrs; type: ADME, organism-based; design: dose 30 mg/kg, route intraperitoneal; conditions: read-out: BPR
[16] = target: T1, Beta-secretase 1; experiment: Ratio of IC50 for BACE1 in human HEK293 cells expressing swedish mutant AP to IC50 for BACE1; type: cell-based
[17] = test system: P-glycoprotein; experiment: Efflux ratio of permeability across basolateral to apical side over apical to basolateral side in human Caco2 cells expressing p-glycoprotein; type: ADME, cell-based; conditions: Caco-2
[18] = Fraction unbound in plasma of CD-IGS rat at 30 mg/kg, ip measured after 5 hrs; type: ADME, organism-based; design: dose 30 mg/kg, route intraperitoneal

T1 sequence (P56817 whole entry): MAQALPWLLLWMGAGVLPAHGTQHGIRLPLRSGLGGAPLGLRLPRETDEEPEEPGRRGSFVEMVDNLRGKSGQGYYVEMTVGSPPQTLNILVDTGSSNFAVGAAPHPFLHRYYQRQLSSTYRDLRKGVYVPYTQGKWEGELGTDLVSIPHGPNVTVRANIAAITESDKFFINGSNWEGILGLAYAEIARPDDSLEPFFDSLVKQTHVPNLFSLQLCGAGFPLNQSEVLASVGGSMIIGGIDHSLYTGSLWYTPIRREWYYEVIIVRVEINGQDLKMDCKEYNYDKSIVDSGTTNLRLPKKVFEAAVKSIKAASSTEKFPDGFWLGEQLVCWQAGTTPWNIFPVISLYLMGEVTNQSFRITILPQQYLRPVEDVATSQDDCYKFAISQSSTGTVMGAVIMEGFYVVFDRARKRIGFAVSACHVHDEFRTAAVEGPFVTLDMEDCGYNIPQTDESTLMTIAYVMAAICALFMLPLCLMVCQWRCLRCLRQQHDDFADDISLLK

With `CCC(C)[C@@]1(NC(C)=O)CCN([C@@H](CCc2ccccc2)C(=O)N[C@@H](Cc2cc(F)cc(F)c2)[C@H](O)[C@H]2C[C@H](O)CN2)C1=O` (stereo partly specified) the pIC50 [1] was 9.05, the pIC50 [2] was 7.96 and the Selectivity ratio [3] was 3400. For the same compound, the Selectivity ratio [4] was 3400, the Selectivity ratio [5] was 3400 and the Activity [6] was 66%. For the same compound, the concentration at 5 h [7] was 780 nM, the fraction unbound at 5 h [8] was 0.1 and the Activity [9] was “inactive”. It also gave a concentration at 5 h [10] of 680 nM and a Kp at 5 h [11] of 0.87.

In the case of `CCCC[C@H]1CCN([C@@H](CCc2ccccc2)C(=O)N[C@@H](Cc2cc(F)cc(F)c2)[C@H](O)[C@H]2C[C@@H](OCCC)CN2)C1=O`, the pIC50 [1] was 7.72, the pIC50 [2] was 7.08 and the Activity [12] was 23%. It also gave a concentration at 5 h [13] of 4000 nM, an Activity [14] of 114% and a Kp at 5 h [15] of 0.02.

In the case of `CCCC[C@H]1CCN([C@@H](C)C(=O)N[C@@H](Cc2cc(F)cc(F)c2)[C@H](O)[C@H]2Cc3ccccc3CN2)C1=O`, the pIC50 [2] was 6.14 and the Ratio IC50 [16] was greater than 10.

For `CCCO[C@H]1CN[C@@H]([C@@H](O)[C@H](Cc2cc(F)cc(F)c2)NC(=O)[C@H](CCc2ccccc2)N2CC[C@](NC(C)=O)(C(C)CC)C2=O)C1` (stereo partly specified), the pIC50 [1] was 8.59, the pIC50 [2] was 8.57 and the Selectivity ratio [3] was 31. For the same compound, the Selectivity ratio [4] was 31 and the Selectivity ratio [5] was 31.

With `CCCO[C@H]1CN[C@@H]([C@@H](O)[C@H](Cc2cc(F)cc(F)c2)NC(=O)[C@H](CCc2ccccc2)N2CC[C@@](CC(C)C)(NC(C)=O)C2=O)C1` the pIC50 [2] was 8.70 and the efflux ratio [17] was greater than 12.

In the case of `CCCO[C@H]1CN[C@@H]([C@@H](O)[C@H](Cc2cc(F)cc(F)c2)NC(=O)[C@H](C)N2CC[C@H](CC(C)C)C2=O)C1`, the pIC50 [1] was 7.46, the pIC50 [2] was 6.96 and the efflux ratio [17] was 32.

With `CCCC[C@H]1CCN([C@@H](CCc2ccccc2)C(=O)N[C@@H](Cc2cc(F)cc(F)c2)[C@H](O)[C@H]2Cc3ccccc3CN2)C1=O` the pIC50 [2] was 5.85 and the Ratio IC50 [16] was greater than 10.

`CCCC[C@H]1CCN([C@@H](C)C(=O)N[C@@H](Cc2cc(F)cc(F)c2)[C@H](O)CNCc2cccc(OC)c2)C1=O` showed a pIC50 [1] of 7.22, a pIC50 [2] of 7.09 and an Activity [12] of 26%. For the same compound, the concentration at 5 h [13] was 1600 nM, the Activity [14] was 112% and the fraction unbound at 5 h [18] was 0.029. For the same compound, the Kp at 5 h [15] was 0.18.

In the case of `CCC(C)[C@@]1(NC(C)=O)CCN([C@@H](CCc2ccccc2)C(=O)N[C@@H](Cc2cc(F)cc(F)c2)[C@H](O)[C@H]2C[C@@H](OCc3ccccn3)CN2)C1=O` (stereo partly specified), the pIC50 [1] was 8.82 and the pIC50 [2] was 8.89.

`CCCO[C@H]1CN[C@@H]([C@@H](O)[C@H](Cc2cc(F)cc(F)c2)NC(=O)[C@H](CCc2ccccc2)N2CC[C@H](C(C)C)C2=O)C1` showed a pIC50 [1] of 7.68 and a pIC50 [2] of 7.00.

`CCCC[C@H]1CCN([C@@H](C)C(=O)N[C@@H](Cc2cc(F)cc(F)c2)[C@H](O)[C@H]2C[C@@H](OCCC)CN2)C1=O` gave a pIC50 [1] of 7.06, a pIC50 [2] of 7.17 and an efflux ratio [17] greater than 17.

In the case of `CCCC[C@H]1CCN([C@@H](CCc2ccccc2)C(=O)N[C@@H](Cc2cc(F)cc(F)c2)[C@H](O)[C@H]2C[C@H](O)CN2)C1=O`, the pIC50 [1] was 6.96 and the pIC50 [2] was 6.14.

Work on `CCC(C)[C@@]1(NC(C)=O)CCN([C@@H](CCc2ccccc2)C(=O)N[C@@H](Cc2cc(F)cc(F)c2)[C@H](O)[C@H]2C[C@@H](Oc3cccnc3)CN2)C1=O` (stereo partly specified) yielded a pIC50 [1] of 8.23 and a pIC50 [2] of 8.60.

Work on `CCCO[C@H]1CN[C@@H]([C@@H](O)[C@H](Cc2cc(F)cc(F)c2)NC(=O)[C@H](CCc2ccccc2)N2CC[C@H](COC)C2=O)C1` yielded a pIC50 [1] of 7.64 and a pIC50 [2] of 7.05.
